Assay results reported in patent US11524077B2, “Orally active, cell-penetrating homing peptide and methods using same” (Vascular BioSciences, priority 2012, dated 2022).
Bridge positions count the residues as written; N and C are the ends. Ends that are not written are not given here. Peptide text beside a SMILES is read from it.

Assays:
trypsin = trypsin digest time-course experiment with mass spectrometry analysis; assay type: in vitro ADME; details: trypsin in Krebbs buffer, 24° C., 0-120 minutes
Source text: In an effort to further understand the oral availability of cyclic CAR peptide, we tested the stability of cyclic CAR (cCAR) and linear CAR in the presence of trypsin, a serine protease that is one of the primary enzymes found in the digestive system of vertebrates. Trypsin selectively cleaves peptide chains at the carboxyl side of the basic residues lysine and arginine, yielding a potentially wide variety of peptide fragments.
We conducted a trypsin proteolysis time course experiment, and tested cCAR and linear CAR (cyclic CAR that lacks the disulfide bond between adjacent cysteine residues and has a linear structure) in the presence of a trypsin solution.
For the digest time course experiment, the cCAR peptide sample was prepared by dissolving cCAR in Krebbs buffer (670 μM CAR), and the trypsin digest solution was prepared by adding trypsin to Krebbs buffer as well (0.1 μg/μL Trypsin). 15 μL CAR (670 μM) was added to 40 μL trypsin solution (0.1 μg/μL) and 75 μL Krebbs buffer. The reaction was allowed to proceed at 24° C. for different time periods of time. The reactions were quenched with 20 μL formic acid (500 μM) at different time points to stop trypsin from degrading any further peptide substrate. These steps were performed repeatedly for multiple time points (t=0, 5, 10, 15, 20, 30, 60, 120 minutes) for both cCAR and linear CAR. The different time point samples were desalted and analyzed using mass spectrometry.

[1] = test system: severe occlusive PAH rats (SU5416/Hx/Nx-exposed); experiment: hemodynamic effect of oral CAR 3 hours prior to i.v. imatinib in severe occlusive rat model of PAH; assay type: in vivo
Description: Anesthetized severe occlusive PAH rats were then catheterized in the right jugular vein for measurement of right ventricular systolic pressure (RVSP), the right carotid artery and advanced into the aorta for the measurement of systemic pressure (SAP) and the left jugular vein for drug administration.
Values are means±SE. N=3 without CAR and N=5 with CAR *p<0.05 vs. without CAR.
Recently we sought to explore the hemodynamic effect of orally administering 20 mg/kg of CAR 3 hours prior to i.v. administration of imatinib at doses of 5 mg/kg and 20 mg/kg in a severe occlusive rat model of PAH. Rats were first orally syringe fed a mixture of 20 mg/Kg CAR in a 10% sucrose solution 3 hours prior to anesthetization and assessment of the hemodynamic effects of i.v. administration of 5 mg/kg imatinib followed 20 minutes later by i.v. administration of 20 mg/kg of imatinib (FIG. 1).

[2] = test system: SU/Hx/Nx rats with severe occlusive model PAH; experiment: sublingual CAR +/- imatinib or sildenafil in rats with severe occlusive model PAH; assay type: in vivo, rat; details: CAR 3 mg/kg sublingual; i.v. bolus imatinib or sildenafil; RVSP and SAP
Description: (A) a pulmonary artery with medial thickening, (B) a small pulmonary artery with neointimal occlusion, (C) spleen, (D) liver, and (E) kidney from a SU/Hx/Nx rat. […] Effects of CAR (3 mg/kg, sublingual) on intravenous (bolus) imatinib (F)- and sildenafil (G)- induced reductions in right ventricular systolic pressure (RVSP) and systemic arterial pressure (SAP) in SU/Hx/Nx rats. Values are means±SE. N=4-6. *p<0.05 with (solid line) vs. without (dashed line) CAR.
CAR was administered sublingually at a dosing of 3 mg/kg. The administration was performed in six rats with severe occlusive model PAH via dropper sublingually. The administration was +/− imatinib or +/− sildenafil.

[3] = test system: pulmonary hypertensive arteries; details: monocrotaline (MCT) and SU5416/Hypoxia/Normoxia severe occlusive rat models of PAH; cited from earlier work
[4] = co-administered with the Rho-kinase inhibitor fasudil; cited from earlier work
[5] = imatinib i.v. 20 mg/kg, 3 hours after oral CAR 20 mg/kg, severe occlusive PAH rats

resistance to trypsin digestion relative to cCAR (trypsin)	resistance to trypsin digestion relative to linear CAR (trypsin)	Compound	outcome of trypsin digest (stability in words) (trypsin)	adjuvant activity after oral administration ([1]; 3 hours after oral CAR 20 mg/kg in 10% sucrose, i.v. imatinib)	change in systemic arterial pressure (SAP) [1, 5]	reduction in right ventricular systolic pressure (RVSP) [1, 5] [%]	effect on action of co-administered drugs [2]	homing to pulmonary hypertensive arteries [3]	vasodilation when co-administered with fasudil [4]
approximately 10 fold	approximately 100 fold	C[C@H](NC(=O)[C@@H]1CSSC[C@H](NC(=O)[C@H](CC(=O)O)NC(=O)[C@H](CCCCN)NC(=O)[C@H](CC(N)=O)NC(=O)[C@H](CCCCN)NC(=O)[C@@H](N)CO)C(=O)N1)C(=O)N[C@@H](CCCNC(=N)N)C(=O)O [SEQ ID NO: 5, SKNKDCCAR] (H-SKNKDCCAR-OH; disulfide 6-7; N-terminus and C-terminus assumed)	largely resistant to further degradation by trypsin	–	–	–	–	–	–
–	–	C[C@H](NC(=O)[C@@H](N)CS)C(=O)N[C@@H](CCCNC(=N)N)C(=O)N[C@@H](CO)C(=O)N[C@@H](CCCCN)C(=O)N[C@@H](CC(N)=O)C(=O)N[C@@H](CCCCN)C(=O)N[C@@H](CC(=O)O)C(=O)N[C@@H](CS)C(=O)O [linear CAR] (H-CARSKNKDC-OH; N-terminus and C-terminus assumed)	quickly digested by trypsin into its constituent amino acids	–	–	–	–	–	–
–	–	CARSKNKDC (disulfide 1-9 (inferred)) [cell-penetrating homing peptide]	yielded one predominant product that persisted over the time course of the experiment	displayed pulmonary selective adjuvant activity	no change	18	can facilitate the selective action of co-administered drugs at the site of the disease	shown to home to pulmonary hypertensive arteries	acute pulmonary selective vasodilation
